How the values were obtained:
[1] = system: HIF; assay: HIF activity reporter assay (single luciferase assay, 4XEPO-HRE-FLuc stable Saos-2 clone 3); type: cell-based, human; conditions: for reporter signal intensities: FIGS. 9A and B legend
Description: To confirm the HIF reporter activity of neomycin-resistant parental population, a single luciferase assay was conducted. Initially, 2.5×10^4 of the cells were plated in wells of a 48-well plates in antibiotic-free DMEM with 10% FBS for 16 hours. One of the plates was then incubated for 24 hours in a normoxic (21% 02) gaseous atmosphere in a humidified CO2 incubator while the other was incubated in a hypoxic (0.5% 02) gaseous environment in a hypoxic chamber (BioSpherix, USA) controlled by an oxygen regulator (ProOx model 110, BioSpherix, USA. After 24 hours of exposure to different oxygen concentrations, Bright-Glo™ Luciferase Assay (Promega, USA) was conducted to analyse the HIF reporter activity. Initially, growth media in each well was discarded and the cells were rinsed once with 300 μl of 1×PBS. Room temperature-equilibrated Glo Lysis Buffer (GLB; 60 μl) was then added into the wells. Plates were then gently rocked on a shaker for 5 min at room temperature. Cell lysis was confirmed visually by observing the wells of the 48-well plate under a light microscope. Thirty microliters of the resulting cell lysates were then transferred into individual glass vials. Bright-Glo™ Assay Reagent was then added into each tube at a 1:1 (v/v) ratio. Luminescence intensity was immediately read and recorded by a Luminometer (Sirius-2, Titertek-Berthold).
(§1) To verify the property of the stable single cell population as an assay system to measure HIF activity, a proof of concept study was performed with commercially available and known HIF inhibitors. […] Treatment of these drugs in certain cancer cells leads to cell death. To confirm that the inhibition of bioluminescence in our cell assay system is due to HIF inhibition rather than this cytotoxic effect, we simultaneously determined the viability of cells under various concentrations of each drug used for the inhibition assay. The 3-(4,5-dimethylthiazol-2-yl)-2,5-[…] bromide MTT assay was used. […] The cells were then incubated in either normoxic or hypoxic conditions for 24 hours. After the treatment, cell culture media was replaced with fresh serum-free DMEM containing 0.5 mg/ml MTT. After 4 hours of incubation in a humidified CO2 incubator at 37° C., formazan precipitates were dissolved with 100 μl of DMSO. The resulting reaction was read using a microplate reader at 570 nm absorbance and 630 nm as the reference wavelength. The half maximal inhibitory concentration (IC50) of each drug towards the cells was determined by plotting graphs using the Graphpad Prism 5 software. HIF inhibitory effects at the various concentrations of drugs tested were also measured using the single luciferase assay system. A correlation between the drugs' effects on cell viability and HIF inhibition was then evaluated.

[2] = system: clone 3 cells (stable Saos-2 osteosarcoma clone); assay: MTT cell viability assay; type: cell-based, human
Description: as §1, with “To confirm that the inhibition of bioluminescence in our cell assay system is due to HIF inhibition rather than this cytotoxic effect, we simultaneously determined the viability of cells under various concentrations of each drug used for the inhibition assay.” left out

Compound	reporter signal intensities [1]	inhibition of luciferase signals ([1]; hypoxic clone 3, 25 μM concentration) [%]	hypoxia-induced luciferase signal ([1]; clone 3 cells, hypoxia, concentrations of up to 500 nM)	cell viability ([2]; concentrations higher than 500 nM)	cell viability ([2]; concentrations of up to 500 nM)
N.N.[Cl][Pt][Cl] [cisplatin]	reduction of reporter signal intensities	~60	–	–	–
CC(C)C[C@H](NC(=O)[C@H](Cc1ccccc1)NC(=O)c1cnccn1)B(O)O [Bortezomib]	reduction of reporter signal intensities	–	significantly reduced	the inhibition was associated with cell death	without affecting cell viability

Reference: patent US9995730B2, “Hypoxia Inducible Factor (HIF) Activity Reporter Cell Line” (Universiti Putra Malaysia (UPM), priority 2012, dated 2018)
